# Data as given in publication PMC8474116, “Discovery of Novel Acetamide-Based Heme Oxygenase-1 Inhibitors with Potent In Vitro Antiproliferative Activity” (Journal of Medicinal Chemistry, 2021).
# What was measured:
# A172 cells = assay: MTT cell viability assay, A172; format: cell-based, human; settings: 48 h
# Protocol: (§1) Experiments were performed on human GBM cell lines U87MG (ATCCC number #HTB-14) and A172 (ATCCC #CRL-1620) on DU145 (ATCC HTB-81) and human lung adenocarcinoma A549 (ATCC CCL-185-LUC2). All cell lines were obtained from the American Type Culture Collection (ATCC, Rockville, MD). Cells were grown in Dulbecco’s modified Eagle’s medium (DMEM) supplemented with 10% of heat-inactivated fetal bovine serum (FBS), 100 U/mL of penicillin, and 100 μg/mL of streptomycin (Sigma-Aldrich, Steinheim, Germany). Cells were incubated at 37 °C in a humidified atmosphere with 5% CO2.
# (§2) The effect of selected compounds 7i and 7l–p on cell viability was assessed by performing an MTT assay. Cells were seeded into 96-well plates at a density of 7 × 10^3 cells/well in 100 μL of culture medium. After 24 h, cells were treated with selected compounds at three different concentrations (1 μM, 10 μM, and 50 μM) for 48 h. Following treatments, 0.5 mg/mL of 3-[4,5-dimethylthiazol-2-yl]-2,5-diphenyltetrazolium bromide (MTT) (Sigma-Aldrich) was added to each well and incubated for 4 h at 37 °C. Finally, dimethyl-sulfoxide (DMSO) was used to dissolve formazan salts, and absorbance was measured at 570 nm in a microplate reader (Biotek Synergy-HT). Eight replicate wells were used for each group.
# HO-1 [1] = target: T1, HO-1 (Rattus norvegicus, UniProt P06762); assay: HO-1 enzymatic activity, rat spleen microsomal fraction (bilirubin formation); format: biochemical; settings: for IC50: rat spleen microsomal fraction, mean of triplicate ± SD; for SI (HO-2/HO-1): ratio of HO-2 and HO-1 IC50
# T1 construct: selected to use the most native (i.e., closest to in vivo) forms of HO-1 and HO-2; from tissue; host or cells: rat spleen (male Sprague-Dawley), microsomal fraction
# T1 sequence (P06762 1-289): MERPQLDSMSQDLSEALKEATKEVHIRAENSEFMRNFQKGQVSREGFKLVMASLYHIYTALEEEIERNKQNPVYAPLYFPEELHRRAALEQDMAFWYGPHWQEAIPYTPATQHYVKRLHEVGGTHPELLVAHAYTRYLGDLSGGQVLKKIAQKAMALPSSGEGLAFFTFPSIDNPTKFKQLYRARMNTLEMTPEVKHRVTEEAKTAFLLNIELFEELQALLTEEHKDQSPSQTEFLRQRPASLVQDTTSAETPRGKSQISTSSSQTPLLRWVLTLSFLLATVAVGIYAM
# Protocol: (§3) HO-1 and HO-2 were obtained, respectively, from the rat spleen and brain as the microsomal fraction prepared by differential centrifugation; the dominance of HO-1 protein in the rat spleen and HO-2 in the rat brain has been well documented.[24] These particular microsomal preparations were selected to use the most native (i.e., closest to in vivo) forms of HO-1 and HO-2. Spleen and brain (Sprague-Dawley rats) microsomal fractions were prepared according to the procedure outlined by Ryter et al.[2] The experiments reported in the present paper complied with the current Italian law and met the guidelines of the Institutional Animal Care and Use Committee of the Ministry of Health (Directorate General for Animal Health and Veterinary Medicines, Italy) “Dosing of enzymatic activities in rat microsomes” (2018–2022), project code 02769.N.VLY. The experiments were performed in male Sprague-Dawley albino rats (150 g body weight and age 45 d). They had free access to water and were kept at room temperature with a natural photoperiod (12 h light–12 h dark cycle). For measuring HO-1 and HO-2 activities, each rat was sacrificed and their spleen and brain were excised and weighed. A homogenate (15%, w/v) of spleens and brains pooled from four rats was prepared in ice-cold HO-homogenizing buffer (50 mM Tris buffer, pH 7.4, containing 0.25 M sucrose) using a Potter–Elvehjem homogenizing system with a Teflon pestle. The microsomal fraction of rat spleen and brain homogenate was obtained by centrifugation at 10 000g for 20 min at 4 °C, followed by centrifugation of the supernatant at 100 000g for 60 min at 4 °C. The 100 000g pellet (microsomes) was resuspended in 100 mM of potassium phosphate buffer, pH 7.8, containing 2 mM MgCl2 with a Potter–Elvehjem homogenizing system. The rat spleen and brain microsomal fractions were divided into equal aliquots, placed into microcentrifuge tubes, and stored at −80 °C for up to 2 months.
# (§4) Liver cytosol has been used as a source of biliverdin reductase. Rat liver was perfused through the hepatic portal vein with cold 0.9% NaCl; then, it was cut and flushed with 2 × 20 mL of ice-cold PBS to remove all of the blood. Liver tissue was homogenized in 3 volumes of a solution containing 1.15% KCl w/v and Tris buffer 20 mM, pH 7.8 on ice. Homogenates were centrifuged at 10 000g for 20 min at 4 °C. The supernatant was decanted and centrifuged at 100 000g for 1 h at 4 °C to sediment the microsomes. The 100 000g supernatant was saved and then stored in small amounts at −80 °C after its protein concentration was measured.
# (§5) The HO-1 and HO-2 activities were determined by measuring the bilirubin formation using the difference in absorbance at 464–530 nm, as described by Ryter et al.[2] Reaction mixtures (500 μL) consisted of 20 mM of Tris–HCl, pH 7.4, (1 mg/mL) microsomal extract, 0.5–2 mg/mL of biliverdin reductase, 1 mM of NADPH, 2 mM of glucose 6-phosphate (G6P), 1 U of G6P dehydrogenase, 25 μM of hemin, and 10 μL of DMSO (or the same volume of DMSO solution of test compounds to a final concentration of 100, 10, and 1 μM). Incubations were carried out for 60 min at 37 °C in a circulating water bath in the dark. Reactions were stopped by adding the same volume of chloroform. After recovering the chloroform phase, the amount of bilirubin formed was measured with a double-beam spectrophotometer as OD464–530 nm (extinction coefficient, 40 mM/cm^–1 for bilirubin). One unit of the enzyme was defined as the amount of enzyme catalyzing the formation of 1 nmol of bilirubin/mg protein/h.
# HO-1 [2] = assay: HO-1 protein expression by Western blot, DU145; format: cell-based; settings: DU145, 10 μM, 48 h
# Protocol: (§6) Proteins were extracted from total cell lysate, as previously described.[61] Briefly, cell lines were added to a buffer containing 20 mM Tris (pH 7.4), 2 mM EDTA, 0.5 mM EGTA, 50 mM mercaptoethanol, and […] sucrose supplemented with phosphatase and protease inhibitor cocktails (Roche Diagnostics, Monza, Italy). Subsequently, protein samples were sonicated twice for 20′ by using an ultrasonic probe, followed by centrifugation at 10 000g for 10 min at 4 °C. Sample proteins (30 μg) were diluted in 4X NuPage LDS sample buffer (Invitrogen, NP0007), heated at 80 °C for 5 min, and then separated on a Biorad Criterion XT 4–15% Bis–Tris gel (BIO-RAD) by electrophoresis and then transferred to a PVDF membrane (BIO-RAD). Blots were blocked using the Odyssey Blocking Buffer (LI-COR Biosciences) and probed with appropriate antibodies: HO-1 antibody (GeneTex GTX101147), goat polyclonal anti-VEGF (cat. no. sc-1836, Santa Cruz Biotechnology), and rabbit polyclonal anti-β-tubulin (cat n.sc-9104, Santa Cruz Biotechnology) and β-actin antibody (GeneTex GTX109639).
# (§7) The secondary antibodies goat antirabbit (Odyssey, #926-32211; Odyssey #926-68021) and donkey antigoat IRDye 800CW (cat #926-32214; Li-Cor Biosciences) were used at 1:7000. Blots were scanned, and densitometric analysis was performed with the Odyssey Infrared Imaging System. Values were normalized to β-actin and to β-tubulin.
# HO-1 [3] = assay: HO-1 protein expression by Western blot, A172; format: cell-based, human; settings: A172, 10 μM, 48 h
# Protocol: as §6, §7
# HO-2 = target: T2, HO-2 (Rattus norvegicus, UniProt P23711); assay: HO-2 enzymatic activity, rat brain microsomal fraction (bilirubin formation); format: biochemical; settings: mean of triplicate ± SD
# T2 construct: selected to use the most native (i.e., closest to in vivo) forms of HO-1 and HO-2; from tissue; host or cells: rat brain (male Sprague-Dawley), microsomal fraction
# T2 sequence (P23711 1-315): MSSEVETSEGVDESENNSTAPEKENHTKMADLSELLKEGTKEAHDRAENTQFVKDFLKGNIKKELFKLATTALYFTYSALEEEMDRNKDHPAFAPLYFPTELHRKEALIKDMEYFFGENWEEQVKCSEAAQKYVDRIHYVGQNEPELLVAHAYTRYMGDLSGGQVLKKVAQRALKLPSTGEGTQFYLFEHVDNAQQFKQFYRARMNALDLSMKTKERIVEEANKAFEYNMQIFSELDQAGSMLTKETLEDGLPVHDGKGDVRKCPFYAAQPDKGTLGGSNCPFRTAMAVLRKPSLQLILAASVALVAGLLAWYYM
# Protocol: as §3, §4, §5
# DU145 cells = assay: MTT cell viability assay, DU145; format: cell-based; settings: 48 h, 1 μM and 10 μM
# Protocol: as §1, §2
# U87MG cells = assay: MTT cell viability assay, U87MG; format: cell-based, human; settings: 48 h, at both concentrations 1 and 10 μM
# Protocol: as §1, §2
# A549 cells = assay: MTT cell viability assay, A549; format: cell-based, human; settings: 48 h, 10 μM
# Protocol: as §1, §2
# HO-1 [4] = assay: HO-1 inhibition of known inhibitors (values printed in Figure 1); format: biochemical; settings: 0.27 vs 4.0 μM
SMILES,melting point,"cell viability reduction (in words) (A172 cells; all tested concentrations (1, 10, 50 μM))",HO-1 vs HO-2 selectivity (in words) (HO-1 [1]),fold more potent than parent compound 4 (HO-1) (HO-1 [1]),IC50 (HO-1 [1]),SI (HO-2/HO-1) (HO-1 [1]),HO-1 protein expression (in words) (HO-1 [2]),HO-1 protein expression (in words) (HO-1 [3]),IC50 (HO-2),cell viability reduction (in words) (DU145 cells),cell viability reduction (in words) (A172 cells; 10 μM),cell viability reduction (in words) (A172 cells; 50 μM),fold less potent than 7o (HO-1) (HO-1 [1]),fold less potent than compound 7i (HO-1) (HO-1 [1]),fold more selective for the inducible isoform (HO-1 over HO-2) (HO-1 [1]),cell viability reduction (U87MG cells),cell viability reduction (in words) (A549 cells),fold higher inhibitory potency toward HO-1 with respect to monophenyl analogue 2 (HO-1 [4])
"CN(C(=O)Cn1ccnc1)C(c1ccccc1)c1ccccc1 [7i, N-Benzhydryl-2-(1H-imidazol-1-yl)-N-methylacetamide]",121 to 126 °C,remarkable reduction of cell viability,superimposable HO-1 and HO-2 IC50 values,about 32 fold,0.9 ± 0.07 µM,1,reduced HO-1 protein expression,enhanced its levels,0.9 ± 0.05 µM,–,–,–,–,–,–,–,–,–
"CN(C(=O)Cn1ccnc1)C(c1ccccc1)c1ccc(OCc2ccc(Br)cc2)cc1 (stereo not shown) [7p, N-((4-((4-Bromobenzyl)oxy)phenyl)(phenyl)methyl)-2-(1H-imidazol-1-yl)-N-methylacetamide]",120 to 121 °C,–,–,–,8 ± 0.39 µM,3.1,–,–,24.71 ± 0.14 µM,had efficacies,milder activity,only at 50 μM,about 6.5 fold,~9 fold,3 fold,around 20%,weak effect,–
O=C(CC(c1ccccc1)c1ccccc1)Cn1ccnc1 [compound 3],–,–,–,–,–,–,–,–,–,–,–,–,–,–,–,–,–,15 fold
